{"source": "ChEMBL document CHEMBL3044921", "about": "“Synthesis, characterization, and SAR studies of new (1H-indol-3-yl)alkyl-3-(1H-indol-3-yl)propanamide derivatives as possible antimicrobial and antitubercular agents” (2013)", "key": {"Staphylococcus aureus [1]": {"system": "Staphylococcus aureus", "assay": "Antibacterial activity against Staphylococcus aureus ATCC 25923 assessed as growth inhibition after 16 to 18 hr by serial plate dilution method", "assay_type": "functional"}, "[2]": {"system": "Mycobacterium tuberculosis", "assay": "Antitubercular activity against Mycobacterium tuberculosis H37Rv ATCC 27294 assessed as growth inhibition at 1 to 100 ug/mL after 7 days by resazurin reduction test", "assay_type": "functional"}, "Candida albicans [3]": {"system": "Candida albicans", "assay": "Antifungal activity against Candida albicans assessed as growth inhibition after 3 to 4 days by serial plate dilution method", "assay_type": "functional"}, "Escherichia coli [4]": {"system": "Escherichia coli", "assay": "Antibacterial activity against Escherichia coli […] assessed as growth inhibition after 16 to 18 hr by serial plate dilution method", "assay_type": "functional"}, "[5]": {"system": "Mycobacterium tuberculosis", "assay": "Antitubercular activity against Mycobacterium tuberculosis H37Rv ATCC 27294 assessed as growth inhibition at 0.3125 to 5 ug/mL after 7 days by resazurin reduction test", "assay_type": "functional", "details": "H37Rv ATCC 27294, 168 h"}, "Aspergillus flavus [6]": {"system": "Aspergillus flavus", "assay": "Antifungal activity against Aspergillus flavus NCIM 524 assessed as growth inhibition at […] to […] ug/ml after 3 to 4 days by agar well diffusion method", "assay_type": "functional"}, "Streptococcus pyogenes [7]": {"system": "Streptococcus pyogenes", "assay": "Antibacterial activity against Streptococcus pyogenes assessed as growth inhibition after 16 to 18 hr by serial plate dilution method", "assay_type": "functional"}, "Escherichia coli [8]": {"system": "Escherichia coli", "assay_type": "functional, ATCC 24922", "description": "Antibacterial activity against Escherichia coli ATCC 24922 assessed as growth inhibition at 1.56 to 25 ug/ml after 3 to 4 days by agar well diffusion method"}, "Streptococcus pyogenes [9]": {"system": "Streptococcus pyogenes", "assay_type": "functional", "description": "Antibacterial activity against Streptococcus pyogenes assessed as growth inhibition at 1.56 to 25 ug/ml after 3 to 4 days by agar well diffusion method"}, "[10]": {"system": "Mycolicibacterium fortuitum", "assay": "Antitubercular activity against Mycobacterium fortuitum ATCC 19542 assessed as growth inhibition at 1 to 100 ug/mL after 7 days by resazurin reduction test", "assay_type": "functional", "details": "ATCC 19542, 168 h"}, "Talaromyces marneffei [11]": {"system": "Talaromyces marneffei", "assay": "Antifungal activity against Talaromyces marneffei assessed as growth inhibition at […] to […] ug/ml after 3 to 4 days by agar well diffusion method", "assay_type": "functional"}, "Aspergillus fumigatus [12]": {"system": "Aspergillus fumigatus", "assay": "Antifungal activity against Aspergillus fumigatus NCIM 902 assessed as growth inhibition at […] to […] ug/ml after 3 to 4 days by agar well diffusion method", "assay_type": "functional"}, "[13]": {"system": "Mycolicibacterium smegmatis", "assay": "Antitubercular activity against Mycobacterium smegmatis ATCC 19420 assessed as growth inhibition at 0.3125 to 5 ug/mL after 7 days by resazurin reduction test", "assay_type": "functional", "details": "ATCC 19420, 168 h"}, "Klebsiella pneumoniae [14]": {"system": "Klebsiella pneumoniae", "assay_type": "functional", "description": "Antibacterial activity against Klebsiella pneumoniae assessed as growth inhibition at 1.56 to 25 ug/ml after 3 to 4 days by agar well diffusion method"}, "[15]": {"system": "Mycolicibacterium smegmatis", "assay": "Antitubercular activity against Mycobacterium smegmatis ATCC 19420 assessed as growth inhibition at 1 to 100 ug/mL after 7 days by resazurin reduction test", "assay_type": "functional", "details": "ATCC 19420, 168 h"}, "Aspergillus flavus [16]": {"system": "Aspergillus flavus", "assay": "Antifungal activity against Aspergillus flavus NCIM 524 assessed as growth inhibition after 3 to 4 days by serial plate dilution method", "assay_type": "functional"}, "Candida albicans [17]": {"system": "Candida albicans", "assay": "Antifungal activity against Candida albicans assessed as growth inhibition at […] to […] ug/ml after 3 to 4 days by agar well diffusion method", "assay_type": "functional"}, "Klebsiella pneumoniae [18]": {"system": "Klebsiella pneumoniae", "assay": "Antibacterial activity against Klebsiella pneumoniae assessed as growth inhibition after 16 to 18 hr by serial plate dilution method", "assay_type": "functional"}, "[19]": {"system": "Mycolicibacterium fortuitum", "assay": "Antitubercular activity against Mycobacterium fortuitum ATCC 19542 assessed as growth inhibition at 0.3125 to 5 ug/mL after 7 days by resazurin reduction test", "assay_type": "functional", "details": "ATCC 19542, 168 h"}, "Talaromyces marneffei [20]": {"system": "Talaromyces marneffei", "assay": "Antifungal activity against Talaromyces marneffei assessed as growth inhibition after 3 to 4 days by serial plate dilution method", "assay_type": "functional"}, "Pseudomonas aeruginosa [21]": {"system": "Pseudomonas aeruginosa", "assay_type": "functional, ATCC 27853", "description": "Antibacterial activity against Pseudomonas aeruginosa ATCC 27853 assessed as growth inhibition at 1.56 to 25 ug/ml after 3 to 4 days by agar well diffusion method"}, "Pseudomonas aeruginosa [22]": {"system": "Pseudomonas aeruginosa", "assay": "Antibacterial activity against Pseudomonas aeruginosa ATCC 27853 assessed as growth inhibition after 16 to 18 hr by serial plate dilution method", "assay_type": "functional"}, "Aspergillus fumigatus [23]": {"system": "Aspergillus fumigatus", "assay": "Antifungal activity against Aspergillus fumigatus NCIM 902 assessed as growth inhibition after 3 to 4 days by serial plate dilution method", "assay_type": "functional"}, "[24]": {"system": "Trichophyton mentagrophytes", "assay": "Antifungal activity against Trichophyton mentagrophytes assessed as growth inhibition at […] to […] ug/ml after 3 to 4 days by agar well diffusion method", "assay_type": "functional"}, "Staphylococcus aureus [25]": {"system": "Staphylococcus aureus", "assay_type": "functional, ATCC 25923", "description": "Antibacterial activity against Staphylococcus aureus ATCC 25923 assessed as growth inhibition at 1.56 to 25 ug/ml after 3 to 4 days by agar well diffusion method"}, "[26]": {"system": "Trichophyton mentagrophytes", "assay": "Antifungal activity against Trichophyton mentagrophytes assessed as growth inhibition after 3 to 4 days by serial plate dilution method", "assay_type": "functional"}}, "data": [{"smiles": "O=C(CCc1c[nH]c2ccc(Cl)cc12)NCc1c[nH]c2ccc(OC(F)(F)F)cc12", "values": [{"measurement": "MIC", "setting": "Staphylococcus aureus [1]", "value": 6.25, "unit": "µg/mL"}, {"measurement": "growth inhibition (GI)", "setting": "[2]", "value": 90, "unit": "%"}, {"measurement": "MIC", "setting": "[2]; Mycobacterium tuberculosis, H37Rv ATCC 27294, 168 h", "value": 1, "unit": "µg/mL"}, {"measurement": "MIC", "setting": "Candida albicans [3]", "value": 6.25, "unit": "µg/mL"}, {"measurement": "MIC", "setting": "Escherichia coli [4]", "value": 6.25, "unit": "µg/mL"}, {"measurement": "MIC", "setting": "[5]", "value": 1.25, "unit": "µg/mL"}, {"measurement": "diameter of the inhibition zone (DIZ)", "setting": "Aspergillus flavus [6]", "value": 16, "unit": "mm"}, {"measurement": "MIC", "setting": "Streptococcus pyogenes [7]", "value": 12.5, "unit": "µg/mL"}, {"measurement": "diameter of the inhibition zone (DIZ)", "setting": "Escherichia coli [8]", "value": 16, "unit": "mm"}, {"measurement": "diameter of the inhibition zone (DIZ)", "setting": "Streptococcus pyogenes [9]", "value": 11, "unit": "mm"}, {"measurement": "MIC", "setting": "[10]", "value": 10, "unit": "µg/mL"}, {"measurement": "diameter of the inhibition zone (DIZ)", "setting": "Talaromyces marneffei [11]", "value": 16, "unit": "mm"}, {"measurement": "diameter of the inhibition zone (DIZ)", "setting": "Aspergillus fumigatus [12]", "value": 16, "unit": "mm"}, {"measurement": "MIC", "setting": "[13]", "value": 1.25, "unit": "µg/mL"}, {"measurement": "diameter of the inhibition zone (DIZ)", "setting": "Klebsiella pneumoniae [14]", "value": 16, "unit": "mm"}, {"measurement": "MIC", "setting": "[15]", "value": 1, "unit": "µg/mL"}, {"measurement": "MIC", "setting": "Aspergillus flavus [16]", "value": 6.25, "unit": "µg/mL"}, {"measurement": "diameter of the inhibition zone (DIZ)", "setting": "Candida albicans [17]", "value": 16, "unit": "mm"}, {"measurement": "MIC", "setting": "Klebsiella pneumoniae [18]", "value": 6.25, "unit": "µg/mL"}, {"measurement": "MIC", "setting": "[19]", "value": 1.25, "unit": "µg/mL"}, {"measurement": "MIC", "setting": "Talaromyces marneffei [20]", "value": 6.25, "unit": "µg/mL"}, {"measurement": "diameter of the inhibition zone (DIZ)", "setting": "Pseudomonas aeruginosa [21]", "value": 16, "unit": "mm"}, {"measurement": "MIC", "setting": "Pseudomonas aeruginosa [22]", "value": 6.25, "unit": "µg/mL"}, {"measurement": "MIC", "setting": "Aspergillus fumigatus [23]", "value": 6.25, "unit": "µg/mL"}, {"measurement": "diameter of the inhibition zone (DIZ)", "setting": "[24]", "value": 16, "unit": "mm"}, {"measurement": "diameter of the inhibition zone (DIZ)", "setting": "Staphylococcus aureus [25]", "value": 16, "unit": "mm"}, {"measurement": "MIC", "setting": "[26]", "value": 6.25, "unit": "µg/mL"}]}]}
